Experimental data from patent US8394852B2, “Inotilone derivatives as coherent biological response modifier (cBMR)” (Sami Labs Ltd, priority 2009, dated 2013).

How the values were obtained:
[1] = system: iNOS (inducible nitric oxide synthase); assay: LPS-induced iNOS protein expression by Western blotting in RAW 264.7 cells; format: cell-based, murine; settings: E coli LPS 100 ng/mL, co-treatment
Protocol: (§1) RAW 264.7 cells, derived from murine macrophage (American Type Culture Collection, MD, USA) were cultured in DMEM supplemented with 10% endotoxin-free, heat-inactivated fetal calf serum, 100 units/mL penicillin and 100 mcg/mL streptomycin, the culture media was changed to serum-free DMEM without phenol red on reaching cell density 2-3×10^6 cells/mL, and the cells activated by incubation in medium containing E coli LPS (100 ng/mL). Test compounds dissolved in dimethylsulfoxide were added together with the LPS. Cells treated with 0.05% DMSO acted as vehicle control.
(§2) The effects of test compounds on LPS-induced iNOS (inducible nitric oxide synthase) and COX-2 protein expressions were studied by Western blotting.

COX-2 [2] = assay: LPS-induced COX-2 protein expression by Western blotting in RAW 264.7 cells; format: cell-based, murine; settings: E coli LPS 100 ng/mL, co-treatment
Protocol: as §1, §2

[3] = system: PI3K/Akt and extracellular signal-regulated kinase 1/2 and p38 mitogen-activated protein kinase; settings: cited from earlier work
COX-2 [4] = settings: through decreasing the enzyme activity of COX-2; cited from earlier work
[5] = system: nuclear factor-kappaB (NFkappaB); settings: cited from earlier work
iNOS = settings: cited from earlier work

SMILES | effect on LPS-induced iNOS protein expression [1] | effect on LPS-induced COX-2 protein expression (COX-2 [2]) | LPS-induced activation of PI3K/Akt, ERK 1/2 and p38 MAPK [3] | prostaglandin E(2) production (COX-2 [4]) | LPS-induced nuclear translocation of NFkappaB subunit and NFkappaB-dependent transcriptional activity [5] | protein and mRNA expression of iNOS (iNOS)
COc1cc(/C=C2\OC(C)=CC2=O)ccc1O [4b, 2-(4-Hydroxy-3-methoxy-benzylidene)-5-methyl-furan-3-one] | no effect on LPS induced iNOS protein expression | slightly stimulated LPS-induced COX-2 expression |  |  |  | 
CC1=CC(=O)/C(=C/c2ccc(O)c(O)c2)O1 [4a, Inotilone] | suppressed the induction of iNOS | but not of COX-2 | inhibited LPS-induced activation of PI3K/Akt and extracellular signal-regulated kinase 1/2 and p38 mitogen-activated protein kinase | inhibited prostaglandin E(2) production | reduction of LPS-induced nuclear translocation of NFkappaB subunit and the NFkappaB-dependent transcriptional activity | blocked protein and mRNA expression of iNOS
